biological target: Beta-3 Adrenergic Receptor (Homo sapiens (Human), UniProt P13945); assay: HTRF cAMP antagonist assay (IC50 determination); assay type: cell-based; settings: CHO-K1 cells stably expressing recombinant receptor; antagonism of isoproterenol at EC90; cAMP readout
Procedure, shortened: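 Antagonist mode: isoproterenol at its predetermined EC90 added after compound to recombinant CHO-K1 cells in IBMX-containing PBS, 1 h, room temperature. Compounds tested as 5-fold, 10-point dilutions, top final typically 10 or 100 μM. HTRF signal converted to cAMP via standard curve, giving IC50.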

Sequence of Beta-3 Adrenergic Receptor (P13945 whole entry, species assumed): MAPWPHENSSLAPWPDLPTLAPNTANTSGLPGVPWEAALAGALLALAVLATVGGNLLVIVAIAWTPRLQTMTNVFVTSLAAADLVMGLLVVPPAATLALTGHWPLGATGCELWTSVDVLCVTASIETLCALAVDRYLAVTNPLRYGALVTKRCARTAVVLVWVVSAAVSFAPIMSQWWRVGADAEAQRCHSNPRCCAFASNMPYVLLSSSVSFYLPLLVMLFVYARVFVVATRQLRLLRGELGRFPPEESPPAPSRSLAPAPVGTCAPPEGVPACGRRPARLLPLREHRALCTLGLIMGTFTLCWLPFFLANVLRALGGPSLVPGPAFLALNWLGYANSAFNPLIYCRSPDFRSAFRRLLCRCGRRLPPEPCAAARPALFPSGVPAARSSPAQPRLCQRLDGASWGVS

How did the IC50 turn out when `O=S(=O)(c1cccnc1)N1CCC2(CC1)C[C@H](NC[C@H](O)COc1cccc(S(=O)(=O)C3(CO)CC3)c1)CO2` [Compound 202, (S)-1-(3-(1-(hydroxymethyl)cyclopropylsulfonyl)phenoxy)-3-((S)-8-(pyridin-3-ylsulfonyl)-1-oxa-8-azaspiro[4.5]decan-3-ylamino)propan-2-ol] was run?
Its IC50 is 346 nM.

For `Cc1c(-c2ccc(CN)cc2)cccc1S(=O)(=O)N1CCC2(CC1)C[C@@H](NC[C@H](O)COc1cccc(S(=O)(=O)C3(CO)CC3)c1)CO2` [Compound 203, (S)-1-((R)-8-(4′-(aminomethyl)-2-methylbiphenyl-3-ylsulfonyl)-1-oxa-8-azaspiro[4.5]decan-3-ylamino)-3-(3-(1-(hydroxymethyl)cyclopropylsulfonyl)phenoxy)propan-2-ol], which IC50 is on record?
Its IC50 is 1110 nM.

Which IC50 does the source give for `Cc1c(-c2ccc(C3(N)CC3)cc2)cccc1S(=O)(=O)N1CCC2(CC1)C[C@@H](NC[C@H](O)COc1cccc(S(=O)(=O)C3(CO)CC3)c1)CO2` [Compound 204, (S)-1-((R)-8-(4′-(1-aminocyclopropyl)-2-methylbiphenyl-3-ylsulfonyl)-1-oxa-8-azaspiro[4.5]decan-3-ylamino)-3-(3-(1-(hydroxymethyl)cyclopropylsulfonyl)phenoxy)propan-2-ol] here?
Its IC50 is 504 nM.

Which IC50 does the source give for `CCOc1ccc(-c2ccc(CN)cc2)cc1S(=O)(=O)N1CCC2(CC1)C[C@H](NC[C@H](O)COc1cccc(S(=O)(=O)CC(N)=O)c1)CO2` [Compound 205, 2-(3-((S)-3-((S)-8-(4′-(aminomethyl)-4-ethoxybiphenyl-3-ylsulfonyl)-1-oxa-8-azaspiro[4.5]decan-3-ylamino)-2-hydroxypropoxy)phenylsulfonyl)acetamide] here?
The IC50 was 92.2 nM.

How did the IC50 turn out when `COc1c(-c2ccc(CN)cc2)cccc1S(=O)(=O)N1CCC2(CC1)C[C@H](NC[C@H](O)COc1cccc(S(=O)(=O)CC(N)=O)c1)CO2` [Compound 206, 2-(3-((S)-3-((S)-8-(4′-(aminomethyl)-2-methoxybiphenyl-3-ylsulfonyl)-1-oxa-8-azaspiro[4.5]decan-3-ylamino)-2-hydroxypropoxy)phenylsulfonyl)acetamide] was run?
The IC50 was 403 nM.

For `COc1ccc(S(=O)(=O)N2CCC3(CC2)C[C@H](NC[C@H](O)COc2cccc(S(=O)(=O)C4(CO)CC4)c2)CO3)cc1-c1ccc(CN)cc1` [Compound 207, (S)-1-((S)-8-(4′-(aminomethyl)-6-methoxybiphenyl-3-ylsulfonyl)-1-oxa-8-azaspiro[4.5]decan-3-ylamino)-3-(3-(1-(hydroxymethyl)cyclopropylsulfonyl)phenoxy)propan-2-ol], which IC50 is on record?
Its IC50 is 51.1 nM.

How did the IC50 turn out when `COc1ccc(S(=O)(=O)N2CCC3(CC2)C[C@@H](NC[C@H](O)COc2cccc(S(=O)(=O)C4(CO)CC4)c2)CO3)cc1-c1ccc(CN)cc1` [Compound 208, (S)-1-((R)-8-(4′-(aminomethyl)-6-methoxybiphenyl-3-ylsulfonyl)-1-oxa-8-azaspiro[4.5]decan-3-ylamino)-3-(3-(1-(hydroxymethyl)cyclopropylsulfonyl)phenoxy)propan-2-ol] was run?
The IC50 was 34.8 nM.

How did the IC50 turn out when `CCOc1ccc(-c2ccc(CN)cc2)cc1S(=O)(=O)N1CCC2(CC1)C[C@H](NC[C@H](O)COc1cccc(S(C)(=O)=O)c1F)CO2` [Compound 209, (S)-1-((S)-8-(4′-(aminomethyl)-4-ethoxybiphenyl-3-ylsulfonyl)-1-oxa-8-azaspiro[4.5]decan-3-ylamino)-3-(2-fluoro-3-(methylsulfonyl)phenoxy)propan-2-ol] was run?
Its IC50 is 8.79 nM.

Which IC50 does the source give for `NCCc1ccc(-c2cccc(S(=O)(=O)N3CCC4(CC3)C[C@H](NC[C@H](O)COc3cccc(S(=O)(=O)C(F)(F)CO)c3)CO4)c2)cc1` [Compound 210, (S)-1-((S)-8-(4′-(2-aminoethyl)biphenyl-3-ylsulfonyl)-1-oxa-8-azaspiro[4.5]decan-3-ylamino)-3-(3-(1,1-difluoro-2-hydroxyethylsulfonyl)phenoxy)propan-2-ol] here?
The IC50 was 22.4 nM.

With `NCCc1ccc(-c2cccc(S(=O)(=O)N3CCC4(CC3)C[C@H](NC[C@H](O)COc3cccc(S(=O)(=O)C5(CO)CC5)c3)CO4)c2)cc1` [Compound 211, (S)-1-((S)-8-(4′-(2-aminoethyl)biphenyl-3-ylsulfonyl)-1-oxa-8-azaspiro[4.5]decan-3-ylamino)-3-(3-(1-(hydroxymethyl)cyclopropylsulfonyl)phenoxy)propan-2-ol] as the molecule, how does the IC50 read?
The IC50 was 26.2 nM.

For `NCCc1ccc(-c2cccc(S(=O)(=O)N3CCC4(CC3)C[C@@H](NC[C@H](O)COc3cccc(S(=O)(=O)C5(CO)CC5)c3)CO4)c2)cc1` [Compound 212, (S)-1-((R)-8-(4′-(2-aminoethyl)biphenyl-3-ylsulfonyl)-1-oxa-8-azaspiro[4.5]decan-3-ylamino)-3-(3-(1-(hydroxymethyl)cyclopropylsulfonyl)phenoxy)propan-2-ol], which IC50 is on record?
The IC50 was 26 nM.

`NCCc1ccc(-c2cccc(S(=O)(=O)N3CCC4(CC3)C[C@@H](NC[C@H](O)COc3cccc(S(=O)(=O)C(F)(F)CO)c3)CO4)c2)cc1` [Compound 213, (S)-1-((R)-8-(4′-(2-aminoethyl)biphenyl-3-ylsulfonyl)-1-oxa-8-azaspiro[4.5]decan-3-ylamino)-3-(3-(1,1-difluoro-2-hydroxyethylsulfonyl)phenoxy)propan-2-ol] was tested. Which IC50 did it give?
Its IC50 is 18.6 nM.

How did the IC50 turn out when `CCOc1ccc(-c2ccc(CCN)cc2)cc1S(=O)(=O)N1CCC2(CC1)C[C@H](NC[C@H](O)COc1cccc(S(=O)(=O)C3(CO)CC3)c1)CO2` [Compound 214, (S)-1-((S)-8-(4′-(2-aminoethyl)-4-ethoxybiphenyl-3-ylsulfonyl)-1-oxa-8-azaspiro[4.5]decan-3-ylamino)-3-(3-(1-(hydroxymethyl)cyclopropylsulfonyl)phenoxy)propan-2-ol] was run?
The IC50 was 36.7 nM.

With `COc1ccc(S(=O)(=O)N2CCC3(CC2)C[C@H](NC[C@H](O)COc2cccc(S(=O)(=O)C4(CO)CC4)c2)CO3)cc1-c1ccc(CCN)cc1` [Compound 215, (S)-1-((S)-8-(4′-(2-aminoethyl)-6-methoxybiphenyl-3-ylsulfonyl)-1-oxa-8-azaspiro[4.5]decan-3-ylamino)-3-(3-(1-(hydroxymethyl)cyclopropylsulfonyl)phenoxy)propan-2-ol] as the molecule, how does the IC50 read?
The IC50 was 38.4 nM.

With `NCc1ccc(-c2cc(S(=O)(=O)N3CCC4(CC3)C[C@@H](NC[C@H](O)COc3cccc(S(=O)(=O)C5(CO)CC5)c3)CO4)ccc2F)cc1` [Compound 216, (S)-1-((R)-8-(4′-(aminomethyl)-6-fluorobiphenyl-3-ylsulfonyl)-1-oxa-8-azaspiro[4.5]decan-3-ylamino)-3-(3-(1-(hydroxymethyl)cyclopropylsulfonyl)phenoxy)propan-2-ol] as the molecule, how does the IC50 read?
The IC50 was 26.4 nM.

How did the IC50 turn out when `NC1(c2ccc(-c3cc(S(=O)(=O)N4CCC5(CC4)C[C@@H](NC[C@H](O)COc4cccc(S(=O)(=O)C6(CO)CC6)c4)CO5)ccc3F)cc2)CC1` [Compound 217, (S)-1-((R)-8-(4′-(1-aminocyclopropyl)-6-fluorobiphenyl-3-ylsulfonyl)-1-oxa-8-azaspiro[4.5]decan-3-ylamino)-3-(3-(1-(hydroxymethyl)cyclopropylsulfonyl)phenoxy)propan-2-ol] was run?
Its IC50 is 28.4 nM.

`NCc1ccc(-c2cc(S(=O)(=O)N3CCC4(CC3)C[C@H](NC[C@H](O)COc3cccc(S(=O)(=O)C5(CO)CC5)c3)CO4)ccc2F)cc1` [Compound 218, (S)-1-((S)-8-(4′-(aminomethyl)-6-fluorobiphenyl-3-ylsulfonyl)-1-oxa-8-azaspiro[4.5]decan-3-ylamino)-3-(3-(1-(hydroxymethyl)cyclopropylsulfonyl)phenoxy)propan-2-ol] was tested. Which IC50 did it give?
Its IC50 is 29.3 nM.
